As a reminder, the pIC50 is the IC50 on a negative log10 scale, so that one unit is a factor of ten.

Assay [1] has as its target T1, Androgen receptor (Homo sapiens, UniProt P10275).
T1 sequence (P10275 whole entry): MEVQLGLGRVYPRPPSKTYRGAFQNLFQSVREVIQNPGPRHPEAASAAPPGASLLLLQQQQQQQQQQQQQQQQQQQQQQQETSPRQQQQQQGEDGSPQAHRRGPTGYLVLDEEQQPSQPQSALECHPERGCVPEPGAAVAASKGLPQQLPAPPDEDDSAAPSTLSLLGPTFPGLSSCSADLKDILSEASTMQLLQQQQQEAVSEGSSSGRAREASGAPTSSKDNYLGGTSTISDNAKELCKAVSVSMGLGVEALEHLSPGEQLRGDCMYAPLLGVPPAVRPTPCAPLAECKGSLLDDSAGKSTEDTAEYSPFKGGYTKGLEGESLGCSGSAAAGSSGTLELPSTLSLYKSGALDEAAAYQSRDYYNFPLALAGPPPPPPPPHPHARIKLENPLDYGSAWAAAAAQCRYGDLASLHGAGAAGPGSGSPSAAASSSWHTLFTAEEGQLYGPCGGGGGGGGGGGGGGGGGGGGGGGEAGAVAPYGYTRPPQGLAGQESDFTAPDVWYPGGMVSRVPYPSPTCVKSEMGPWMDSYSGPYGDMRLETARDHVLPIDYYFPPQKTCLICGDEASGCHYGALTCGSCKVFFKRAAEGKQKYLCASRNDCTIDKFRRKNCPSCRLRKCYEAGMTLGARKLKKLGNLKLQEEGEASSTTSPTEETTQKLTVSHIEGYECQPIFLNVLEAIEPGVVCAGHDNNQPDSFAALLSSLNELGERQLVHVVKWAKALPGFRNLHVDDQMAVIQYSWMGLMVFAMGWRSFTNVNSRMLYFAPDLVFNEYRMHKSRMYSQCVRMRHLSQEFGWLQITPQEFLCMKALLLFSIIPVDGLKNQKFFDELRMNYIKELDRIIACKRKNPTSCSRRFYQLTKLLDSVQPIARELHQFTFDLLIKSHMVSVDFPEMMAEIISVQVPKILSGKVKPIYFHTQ
As to the kind of experiment: Antagonist activity at GAL4-fused human AR LBD (667 to 919 residues) expressed in CHO-K1 cells assessed as inhibition of dihydrotestosterone-induced transactivation activity after 5 to 6 hrs by luciferase reporter gene assay. The format is cell-based. (In general: Reporter assays use an easily measured gene product as a stand-in for the process of interest.)

The target of assay [2] is T2, Progesterone receptor (Homo sapiens, UniProt P06401).
T2 sequence (P06401 whole entry): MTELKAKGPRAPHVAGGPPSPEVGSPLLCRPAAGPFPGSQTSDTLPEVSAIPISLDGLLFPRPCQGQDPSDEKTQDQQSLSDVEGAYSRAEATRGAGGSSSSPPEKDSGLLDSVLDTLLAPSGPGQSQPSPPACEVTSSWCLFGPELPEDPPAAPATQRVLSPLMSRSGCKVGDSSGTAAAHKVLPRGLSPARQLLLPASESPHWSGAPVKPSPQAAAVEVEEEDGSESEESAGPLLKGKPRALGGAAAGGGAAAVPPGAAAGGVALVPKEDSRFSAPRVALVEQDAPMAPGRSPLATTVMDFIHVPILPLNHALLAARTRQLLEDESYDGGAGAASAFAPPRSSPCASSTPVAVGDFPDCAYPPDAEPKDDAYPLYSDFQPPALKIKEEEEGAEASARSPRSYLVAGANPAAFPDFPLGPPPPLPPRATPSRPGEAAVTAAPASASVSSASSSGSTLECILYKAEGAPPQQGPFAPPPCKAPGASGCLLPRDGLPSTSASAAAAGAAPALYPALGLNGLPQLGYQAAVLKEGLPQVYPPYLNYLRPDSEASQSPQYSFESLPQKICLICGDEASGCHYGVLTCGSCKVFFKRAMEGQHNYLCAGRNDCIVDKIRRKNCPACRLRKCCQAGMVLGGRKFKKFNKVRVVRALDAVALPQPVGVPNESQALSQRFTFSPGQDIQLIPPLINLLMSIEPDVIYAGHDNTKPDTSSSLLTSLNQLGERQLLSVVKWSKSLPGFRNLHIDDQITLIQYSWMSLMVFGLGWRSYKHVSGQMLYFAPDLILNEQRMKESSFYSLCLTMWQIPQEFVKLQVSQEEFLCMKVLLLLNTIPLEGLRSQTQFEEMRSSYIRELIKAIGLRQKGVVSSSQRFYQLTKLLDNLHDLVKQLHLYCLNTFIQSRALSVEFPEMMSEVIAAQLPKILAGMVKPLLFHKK
As to the kind of experiment: Antagonist activity at GAL4-fused human PR LBD (680 to 933 residues) expressed in CHO-K1 cells assessed as inhibition of progesterone-induced transactivation activity after 5 to 6 hrs by luciferase reporter gene assay. It counts as cell-based.

Assay [3] deals with T3, Mineralocorticoid receptor (Homo sapiens, UniProt P08235).
T3 sequence (P08235 whole entry): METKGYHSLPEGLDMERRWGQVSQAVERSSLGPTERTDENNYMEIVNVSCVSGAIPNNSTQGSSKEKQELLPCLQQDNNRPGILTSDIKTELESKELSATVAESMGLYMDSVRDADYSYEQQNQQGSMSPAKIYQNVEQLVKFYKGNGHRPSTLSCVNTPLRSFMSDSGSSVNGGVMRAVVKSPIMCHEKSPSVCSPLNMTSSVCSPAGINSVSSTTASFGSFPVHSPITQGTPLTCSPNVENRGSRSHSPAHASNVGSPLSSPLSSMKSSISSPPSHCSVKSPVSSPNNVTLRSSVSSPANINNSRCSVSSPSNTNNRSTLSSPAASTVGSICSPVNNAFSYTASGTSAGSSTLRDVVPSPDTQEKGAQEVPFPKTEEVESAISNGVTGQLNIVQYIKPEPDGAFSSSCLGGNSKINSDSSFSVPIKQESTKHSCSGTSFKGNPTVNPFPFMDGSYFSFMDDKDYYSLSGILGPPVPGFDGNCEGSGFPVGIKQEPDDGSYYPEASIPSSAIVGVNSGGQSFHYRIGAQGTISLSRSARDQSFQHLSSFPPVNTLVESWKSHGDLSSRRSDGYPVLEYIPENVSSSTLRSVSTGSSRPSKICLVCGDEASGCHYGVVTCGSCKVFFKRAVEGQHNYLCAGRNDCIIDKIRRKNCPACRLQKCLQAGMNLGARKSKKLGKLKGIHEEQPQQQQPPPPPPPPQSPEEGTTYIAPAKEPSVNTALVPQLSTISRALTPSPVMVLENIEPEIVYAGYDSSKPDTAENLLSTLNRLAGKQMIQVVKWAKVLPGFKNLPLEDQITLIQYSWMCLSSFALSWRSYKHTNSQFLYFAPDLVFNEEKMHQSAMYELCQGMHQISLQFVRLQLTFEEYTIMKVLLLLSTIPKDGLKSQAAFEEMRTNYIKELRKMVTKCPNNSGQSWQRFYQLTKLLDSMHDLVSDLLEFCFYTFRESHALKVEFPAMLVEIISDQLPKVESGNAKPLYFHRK
As to the kind of experiment: Antagonist activity at Gal4-fused human MR LBD expressed in HEK293T cells assessed as inhibition of aldosterone-induced transactivation activity after 16 hrs by luciferase reporter gene assay. It counts as cell-based, HEK-293T.

The species named for assay [4] is Homo sapiens. Description: Induction of improvement in urinary albumin-creatinine ratio in patient with diabetic nephropathy receiving ACE inhibitor or angiotensin receptor blocker at 7.5 to 20 mg/day during latter phase II trial. It counts as functional. On the set-up: scale not given: the % may be the effect or the level left.

pIC50: −log10 of the molar value. Some results are limits rather than exact numbers.

Take `CCOc1ncc(C)c2c1[C@H](c1ccc(C#N)cc1OC)C(C(N)=O)=C(C)N2` [FINERENONE]: the pIC50 in assay [1] is at most 5.00; in assay [2] it was at most 5.00; in assay [3], 7.24. Besides, the Activity in assay [4] is 21 - 38%.

The record behind these values is ChEMBL document CHEMBL4007392, “Modulating Mineralocorticoid Receptor with Non-steroidal Antagonists. New Opportunities for the Development of Potent and Selective Ligands without Off-Target Side Effects” (J Med Chem, 2017).
